# Test system: Cath.a cells
# Assay: TRPV1-induced calcium-mediated cell death (Trypan Blue positivity)
# Format: cell-based
# Protocol: We therefore studied susceptibility of HEK wild type cells, TRPV1 overexpressing HEK cells, and Cath.a cells to TRPV1-induced calcium-mediated cell death.
# Cells were plated into tissue culture dishes and treated with either vehicle (HEK wild type and Cath.a) or tetracycline (1 micromolar) for 16 h to induce TRPV1 expression (HEK-TRPV1) at 37° C. in a […] atmosphere. After washing, media were replaced with a modified sodium Ringer solution containing 3% FBS and either 10 millimolar CaCl2 or zero added CaCl2 and 1 millimolar EGTA. […] After 2 minutes, aliquots of 7 microliters of cell suspension were counted in a hemocytometer and field of at least 200 cells were scored for Trypan Blue positive or negative status.
smiles,measurement,setting,value
COc1cc(CNC(=O)CCCC/C=C/C(C)C)ccc1O [capsaicin],cell death (trypan blue positivity) in Cath.a cells,"10 mM external CaCl2, 80 min after stimulation with 250 nM capsaicin",can induce cell death
same,cell death (percent trypan blue positive cells) in Cath.a cells in the absence of external calcium,"no external calcium, 80 min after stimulation with 250 nM capsaicin",dependent upon the presence of external calcium
